Measured values as given in PubChem BioAssay AID2060509 (Molecular Pharmacology Branch, DTP, NCI, 2025).

System: 485176-168-R4-J1-PDC spheroids with HUVEC/MSC, viability
Assay: Anticancer human tumor 485176-168-R4-J1-PDC patient-derived pancreatic adenocarcinoma cell line growth inhibition [GQUAD]
Settings: for IC50: curve of first compound; for viability, T/C: stronger effect = lower value
Excerpt: DNA G-quadruplex Stabilizer Agents in Combinations in Complex Spheroids
A high-throughput screen of multi-cell type tumor spheroids was designed to identify active combinations of DNA G-quadruplex stabilizer agents and targeted small molecules. Complex spheroids include a stromal component modeled by human endothelial cells (HUVEC) and fibroblasts modeled by human mesenchymal stem cells (MSCs). The concentration ranges selected for each drug and investigational agent were based upon clinically achievable concentrations if the clinical Cmax of the agent was known.
Compounds. The drugs and investigational agents: pidnarulex (CX-5461; NSC782164), APTO-253 (NSC789042), BRACO-19 (NSC847499), peposertib (NSC802822), ceralasertib (NSC780249), elimusertib (NSC800525), camonsertib (NSC841442), AZD-1390 (NSC803789), olaparib (NSC753686), talazoparib (NSC767125), ART-558 (NSC835418), sotorasib (NSC818433), MRTX-1133 (NSC836407), SN-38 (NSC673596), topotecan (NSC609699), etoposide (NSC141540), doxorubicin (NSC123127), gemcitabine (NSC613327), 5-fluorouracil (NSC19893), paclitaxel (NSC125973), vemurafenib (NSC761431), panobinostat (NSC761190), R-306465 (JNJ-16241199; NSC773264), adavosertib (NSC754352), TP-3654 (NSC805149), carboplatin (NSC241240), KSQ-4279 (NSC840948), and staurosporine (NSC755774) were obtained from the National Cancer Institute (NCI) Developmental Therapeutics Program Chemical Repository (34). The FDA-approved anticancer drug set is available from the NCI Developmental Therapeutics Program. […] The stock solutions were prepared in dimethyl sulfoxide (DMSO, Sigma-Aldrich, St. Louis, MO, cat. D2650) at 800-fold the tested concentration and stored at -70 degrees C prior to their use. All drugs and investigational agents were tested over a range starting from a high concentration at or near the clinical Cmax and decreasing in half-log increments. If the clinical Cmax for an agent had not been determined, the highest concentration tested was 10 microM.
2.3 Cell Culture. All cells were maintained in an incubator at 37 degrees C and 5% CO2 with 95% humidity. The PDC lines were cultured according to standard operating procedures established by the NCI PDMR. All PDCs were thawed and cultured in Matrigel-coated flasks prepared with a working solution of 1X Ham's F-12 nutrient mix, without supplementation (Invitrogen, cat. 11765054), 100 U/mL penicillin-streptomycin (Invitrogen, cat. 15140122), and 2.5% Matrigel (Corning Inc., cat. 354248) for the first three passages. The 857933-349-R-J2-PDC line was cultured in 6C/Colon 1B media, which includes advanced DMEM/F-12 (Thermo Fisher Scientific, cat. 12634028), 10 mM HEPES (Thermo Fisher Scientific, cat. 15630080), 1X GlutaMAX supplement (Thermo Fisher Scientific, cat. 35050061), 0.1 mg/mL primocin (InvivoGen, cat. ant-pm-2), 10% defined fetal bovine serum, heat inactivated (HyClone Laboratories Inc., cat. SH30070.03HI), 50% L-WRN conditioned media (ATCC, cat. CRL-3276), 1.25 mM N-Acetyl-L-cysteine (Sigma-Aldrich, cat. A9165), 10 mM nicotinamide (Sigma-Aldrich, cat. N0636), 1X B-27 supplement (Thermo Fisher Scientific, cat. 17504044), 1X N-2 supplement (Thermo Fisher Scientific, cat. 17502048), 10 microM Y-27632 dihydrochloride (Tocris Bioscience, cat. 1254), and 50 ng/mL human EGF recombinant protein (Thermo Fisher Scientific, cat. PHG0311). The 485176-168-R4-J1-PDC line was cultured in Panc media, which includes all 6C/Colon 1B media components plus 100 ng/mL human FGF-10 (Thermo Fisher Scientific, cat. 100-26), 500 nM SB-431542 (Selleckchem, cat. S1067), and gastrin (Tocris, cat. 3006).
[…]

[1] = second compound 0.0316 µM, first compound 0.0316 µM
[2] = second compound 0.0316 µM, first compound 0.1 µM
[3] = second compound 0.0316 µM, first compound 0.316 µM
[4] = second compound 0.0316 µM, first compound 1 µM
[5] = second compound 0.0316 µM, first compound 3.16 µM
[6] = second compound 0.0316 µM, first compound 10 µM
[7] = second compound 0.1 µM, first compound 0.0316 µM
[8] = second compound 0.1 µM, first compound 0.1 µM
[9] = second compound 0.1 µM, first compound 0.316 µM
[10] = second compound 0.1 µM, first compound 1 µM
[11] = second compound 0.1 µM, first compound 3.16 µM
[12] = second compound 0.1 µM, first compound 10 µM
[13] = second compound 0.316 µM, first compound 0.0316 µM
[14] = second compound 0.316 µM, first compound 0.1 µM
[15] = second compound 0.316 µM, first compound 0.316 µM
[16] = second compound 0.316 µM, first compound 1 µM
[17] = second compound 0.316 µM, first compound 3.16 µM
[18] = second compound 0.316 µM, first compound 10 µM
[19] = second compound 1 µM, first compound 0.0316 µM
[20] = second compound 1 µM, first compound 0.1 µM
[21] = second compound 1 µM, first compound 0.316 µM
[22] = second compound 1 µM, first compound 1 µM
[23] = second compound 1 µM, first compound 3.16 µM
[24] = second compound 1 µM, first compound 10 µM
[25] = second compound 3.16 µM, first compound 0.0316 µM
[26] = second compound 3.16 µM, first compound 0.1 µM
[27] = second compound 3.16 µM, first compound 0.316 µM
[28] = second compound 3.16 µM, first compound 1 µM
[29] = second compound 3.16 µM, first compound 3.16 µM
[30] = second compound 3.16 µM, first compound 10 µM
[31] = second compound 10 µM, first compound 0.0316 µM
[32] = second compound 10 µM, first compound 0.1 µM
[33] = second compound 10 µM, first compound 0.316 µM
[34] = second compound 10 µM, first compound 1 µM
[35] = second compound 10 µM, first compound 3.16 µM
[36] = second compound 10 µM, first compound 10 µM
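Also: spheroids exposed to compounds for seven days before readout.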
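For viability, T/C in this document: percent viability relative to DMSO vehicle control wells as 100%.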

CC1COCCN1c1cc(C2(S(C)(=N)=O)CC2)nc(-c2ccnc3[nH]ccc23)n1 (stereo unspecified) + Cc1cnc(CNC(=O)c2c(=O)c3ccc(N4CCCN(C)CC4)nc3n3c2sc2ccccc23)cn1
IC50 (second compound 0.0316 µM): 2310 nM
IC50 (second compound 0.1 µM): 1010 nM
IC50 (second compound 0.316 µM): 196 nM
IC50 (second compound 1 µM): 53.5 nM
IC50 (second compound 3.16 µM): < 31.6 nM
IC50 (second compound 10 µM): < 31.6 nM
viability, T/C [1]: 96.4%
viability, T/C [2]: 82.9%
viability, T/C [3]: 89.2%
viability, T/C [4]: 44.8%
viability, T/C [5]: 59%
viability, T/C [6]: 15.1%
viability, T/C [7]: 73.8%
viability, T/C [8]: 82.6%
viability, T/C [9]: 53.6%
viability, T/C [10]: 39.7%
viability, T/C [11]: 51%
viability, T/C [12]: 12.1%
viability, T/C [13]: 54%
viability, T/C [14]: 62.7%
viability, T/C [15]: 47.2%
viability, T/C [16]: 28.2%
viability, T/C [17]: 36.4%
viability, T/C [18]: 11.9%
viability, T/C [19]: 50.3%
viability, T/C [20]: 51.5%
viability, T/C [21]: 41.6%
viability, T/C [22]: 28.9%
viability, T/C [23]: 36.8%
viability, T/C [24]: 11.9%
viability, T/C [25]: 45.8%
viability, T/C [26]: 41.6%
viability, T/C [27]: 38.5%
viability, T/C [28]: 23.9%
viability, T/C [29]: 28.7%
viability, T/C [30]: 11%
viability, T/C [31]: 41.4%
viability, T/C [32]: 36.7%
viability, T/C [33]: 37.1%
viability, T/C [34]: 27.5%
viability, T/C [35]: 28.1%
viability, T/C [36]: 12.8%

COc1ccc([C@@H](O)c2cc(-c3ncnc4cc(N5CCOCC5)ccc34)c(F)cc2Cl)nn1 + Cc1[nH]c2ccc(F)cc2c1-c1nc2c3cccnc3c3ncccc3c2[nH]1
IC50 (second compound 0.0316 µM): 3020 nM
IC50 (second compound 0.1 µM): 2690 nM
IC50 (second compound 0.316 µM): 3660 nM
IC50 (second compound 1 µM): 2520 nM
IC50 (second compound 3.16 µM): 1850 nM
IC50 (second compound 10 µM): 1760 nM
viability, T/C [1]: 83.4%
viability, T/C [2]: 98.8%
viability, T/C [3]: 91.8%
viability, T/C [4]: 69.8%
viability, T/C [5]: 51.6%
viability, T/C [6]: 31.4%
viability, T/C [7]: 91.9%
viability, T/C [8]: 90.2%
viability, T/C [9]: 94.7%
viability, T/C [10]: 68.6%
viability, T/C [11]: 48.7%
viability, T/C [12]: 27.7%
viability, T/C [13]: 91.2%
viability, T/C [14]: 88.9%
viability, T/C [15]: 82%
viability, T/C [16]: 86.6%
viability, T/C [17]: 53.2%
viability, T/C [18]: 28.1%
viability, T/C [19]: 81%
viability, T/C [20]: 79%
viability, T/C [21]: 94.2%
viability, T/C [22]: 66.5%
viability, T/C [23]: 46.5%
viability, T/C [24]: 22.4%
viability, T/C [25]: 98.5%
viability, T/C [26]: 87.9%
viability, T/C [27]: 74.4%
viability, T/C [28]: 63.2%
viability, T/C [29]: 39.1%
viability, T/C [30]: 21.3%
viability, T/C [31]: 97.4%
viability, T/C [32]: 78.3%
viability, T/C [33]: 76%
viability, T/C [34]: 56%
viability, T/C [35]: 45.7%
viability, T/C [36]: 21.1%

CC(C)(O)C1CCC(Nc2ccc3ncc(-c4cccc(C(F)(F)F)c4)n3n2)CC1 (stereo unspecified) + Cc1[nH]c2ccc(F)cc2c1-c1nc2c3cccnc3c3ncccc3c2[nH]1
IC50 (second compound 0.0316 µM): > 10000 nM
IC50 (second compound 0.1 µM): > 10000 nM
IC50 (second compound 0.316 µM): 8530 nM
IC50 (second compound 1 µM): 2590 nM
IC50 (second compound 3.16 µM): 2760 nM
IC50 (second compound 10 µM): 2560 nM
viability, T/C [1]: 80.2%
viability, T/C [2]: 110%
viability, T/C [3]: 84.5%
viability, T/C [4]: 81.3%
viability, T/C [5]: 57.7%
viability, T/C [6]: 54.7%
viability, T/C [7]: 93.2%
viability, T/C [8]: 89.3%
viability, T/C [9]: 86.8%
viability, T/C [10]: 88.4%
viability, T/C [11]: 61%
viability, T/C [12]: 59.9%
viability, T/C [13]: 93.6%
viability, T/C [14]: 100%
viability, T/C [15]: 86.8%
viability, T/C [16]: 82.3%
viability, T/C [17]: 58%
viability, T/C [18]: 49.1%
viability, T/C [19]: 82.9%
viability, T/C [20]: 93.1%
viability, T/C [21]: 108%
viability, T/C [22]: 77.6%
viability, T/C [23]: 47.3%
viability, T/C [24]: 40.5%
viability, T/C [25]: 76.9%
viability, T/C [26]: 83.7%
viability, T/C [27]: 88.6%
viability, T/C [28]: 78.6%
viability, T/C [29]: 46.2%
viability, T/C [30]: 33.1%
viability, T/C [31]: 92%
viability, T/C [32]: 55.6%
viability, T/C [33]: 70.3%
viability, T/C [34]: 75.3%
viability, T/C [35]: 40.3%
viability, T/C [36]: 29.5%
